Assay results taken from paper PMC4806491, “The milk-derived fusion peptide, ACFP, suppresses the growth of primary human ovarian cancer cells by regulating apoptotic gene expression and signaling pathways” (BMC Cancer, 2016).
In brackets after ≈: the same amount, converted by molar mass. Where two headings read alike, the source gives them in different places. Residues, ends and D or L forms follow the SMILES beside them.

Tested on: primary ovarian cancer cells
Format: cell-based, human
Conditions: for growth of human primary ovarian cells: different concentrations, in vitro, n=12, Figure S1
Method: Fresh primary ovarian tumor tissues that were assessed and classified as serous ovarian adenocarcinoma (III-IV grade) according to WHO criteria were collected from 53 ovarian cancer patients who underwent initial debulking surgery at the first affiliated hospital of Anhui Medical University between June 2012 and June 2014. All patients had not received adjuvant therapies, such as chemotherapy or radiotherapy, prior to surgery. For comparison, normal ovarian glandular epithelium cells (NOGECs) were cultured from fresh primary normal ovarian tissues harvested from 7 patients with uterine fibromas, which were confirmed as negative for any neoplastic disease by pathological examination. Prior to tissue deposition, all patients signed written consent forms confirming their donation of tissue for research purposes according to the Declaration of Helsinki. This study was approved by the Anhui Medical University Review Board. Tumor or normal ovarian tissues were cut into small 1.0 mm^3 pieces, rinsed two times in phosphate buffered saline (PBS) and digested with 0.25 % trypsin in a sterile centrifuge tube at 37 °C for 30 min. To obtain a single cell suspension cell, digested tissues were filtered with a 100 μm cell strainer. Cells were collected by centrifugation at 1000 rpm for five minutes, and the cell pellet was re-suspended in Dulbecco’s modified eagle medium (DMEM) supplemented with 10 % fetal bovine serum (FBS). Cells were subsequently cultured in DMEM containing 0.1 mg/L epidermal growth factor (EGF), 0.1 mg/L insulin-like growth factor (IGF) and 0.1 mg/L beta-estradiol with 10 % FBS in 5 % CO2 at 37 °C. Once cells reached 70 to 80 % confluence, cell culture medium was drained from the flask, and cells were digested with 0.25 % collagenase II until approximately 1/3 of the cells fell to the bottom of the dish by eye using a microscope. Due to their initial shedding, most fibroblasts were eliminated by collagenase digestion. The remaining cells were cultured in 5 % CO2 at 37 °C. To determine purity, cells were analyzed using immunofluorescence of cytokeratin 7 (for ovarian cancer cells) or cytokeratin 19 (for normal ovarian epithelium cells).
Primary ovarian cancer cells were seeded into 96-well plates in sextuplicate at a starting density of 5 × 10^3 cells/well and incubated with ACFP at the concentrations: 0 (as control), 5 × 10^−6, 5 × 10^−5, 5 × 10^−4, 5 × 10^−3, 5 × 10^−2, 5 × 10^−1 and 5 g/L for 24, 48 and 72 h, respectively. Cells treated with paclitaxel at 5 × 10^−4 g/L were included in the same plate as a positive control. Cell viability was later measured using the WST-1 (water-soluble tetrazolium 1) cell viability and cytotoxicity assay kit (Beyotime, Haimen, China) according to the manufacturer’s instructions. The percent viability of cells was calculated using the formula to calculate the cell viability ratio (VR): VR (%) = (the experimental group A450nm value/control group A450nm value) × 100 %. To assess general toxicity of ACFP, viability of normal ovarian cells treated with ACFP was assayed using the same procedure. The effect of ACFP was compared with LfcinB and PGPIPN (the products of Shanghai Sangon Biological Engineering Technology, China). Each experiment was performed in two independent sets.

Row | SMILES | growth of human primary ovarian cells (48 h) | IC50, cell viability (24 h) [µg/mL] | IC50, cell viability (48 h) [µg/mL] | IC50, cell viability (72 h) [µg/mL]
1 | CC[C@H](C)[C@@H]1NC(=O)[C@H](CO)NC(=O)[C@@H]2CCCN2C(=O)[C@H](C)NC(=O)CNC(=O)[C@H](CC(C)C)NC(=O)[C@H](CCCCN)NC(=O)[C@H](CCCCN)NC(=O)[C@H](CCSC)NC(=O)[C@H](CCCNC(=N)N)NC(=O)[C@H](Cc2c[nH]c3ccccc23)NC(=O)[C@H](CCC(N)=O)NC(=O)[C@H](Cc2c[nH]c3ccccc23)NC(=O)[C@H](CCCNC(=N)N)NC(=O)[C@H](CCCNC(=N)N)NC(=O)[C@@H](NC(=O)[C@H](CCCCN)NC(=O)[C@@H](N)Cc2ccccc2)CSSC[C@@H](C(=O)N[C@H](C(=O)N[C@@H](CCCNC(=N)N)C(=O)N[C@@H](CCCNC(=N)N)C(=O)N[C@@H](C)C(=O)N[C@@H](Cc2ccccc2)C(=O)O)C(C)C)NC(=O)[C@H]([C@@H](C)O)NC1=O [LfcinB] | decreased growth | – | – | –
2 | CC[C@H](C)[C@H](NC(=O)[C@@H]1CCCN1C(=O)CNC(=O)[C@@H]1CCCN1)C(=O)N1CCC[C@H]1C(=O)N[C@@H](CC(N)=O)C(=O)O [PGPIPN] (H-PGPIPN-OH) | decreased growth | 14.5 (≈ 24.4 µM) | 9.3 (≈ 15.7 µM) | 1.24 (≈ 2.09 µM)
